Results from patent US7595400B2, “Process for the preparation of hexacyclic compounds” (Chugai Seiyaku Kabushiki Kaisha, priority 2003, dated 2009).

Columns and labels:
HCT116 (CRC) = test: Anti-proliferative activity assay (WST-8), HCT116; type: cell-based, human; settings: HCT116 colorectal cancer cells, 4 days incubation
Experimental: (§1) The Antiproliferative activity assay was carried out as follows. A single suspension of tumor cells was inoculated to the serially diluted 96-well microtestplate. Then the testplate was incubated in the 5% CO2 ambience at 37° C. for 4 days (2-3×10^3 cells/well). The degree of cell growth in a monolayer was measured by using WST-8 (Dojindo, Japan). IC50 values of drugs against tumor cells were calculated as the concentration of drug yielding 50% OD of the control growth. The IC50 value measures the drug concentration for 50% of the growth of tumor cells in vitro as compared to the control.
(§2) Anti-tumor activities of hexacyclic compounds of formula [1] against in vitro growth of human tumor cell lines, HCT116 and DLD-1 of colorectal cancer (CRC) and QG56 and NCI-H460 of non small cell lung cancer (NSCLC) are shown in Table 1. These cell lines are commercially available via the American Type Culture Collection (ATTC).

DLD-1 (CRC) = test: Anti-proliferative activity assay (WST-8), DLD-1; type: cell-based, human; settings: DLD-1 colorectal cancer cells, 4 days incubation
Experimental: as §1, §2

QG56 (NSCLC) = test: Anti-proliferative activity assay (WST-8), QG56; type: cell-based, human; settings: QG56 non small cell lung cancer cells, 4 days incubation
Experimental: as §1, §2

NCI-H460 (NSCLC) = test: Anti-proliferative activity assay (WST-8), NCI-H460; type: cell-based, human; settings: NCI-H460 non small cell lung cancer cells, 4 days incubation
Experimental: as §1, §2

[1] = converted to the inactive carboxylate form; cited from earlier work

Compound | IC50 (HCT116 (CRC)) [nM] | IC50 (DLD-1 (CRC)) [nM] | IC50 (QG56 (NSCLC)) [nM] | IC50 (NCI-H460 (NSCLC)) [nM] | half-life in plasma [1]
CCc1c2c(nc3ccc(O)cc13)-c1cc3c(c(=O)n1C2)COC(=O)[C@]3(O)CC [SN-38, 7-ethyl-10-hydroxycamptothecin] | 6.9 | 53 | 27 | 21 | 
CC[C@@]1(O)C(=O)OCc2c1cc1n(c2=O)Cc2cc3ccccc3nc2-1 [camptothecin] |  |  |  |  | less than 30 min
